Laboratory results published in patent US5846755A (priority 1995, dated 1998).

How the values were obtained:
[1] = biological target: enzyme purified from the venom of Crotalus Adamanteus (hemorrhagin) (Crotalus adamanteus, UniProt P34179); format: biochemical; details: for IC50: read-out: IC50
[2] = biological target: neutrophil collagenase (recombinant human) (Homo sapiens, UniProt P22894); experiment: In vitro assays on recombinant human collagenase; format: biochemical
Method: Using the same enzymatic determination already described (fluorimetric detection of cleavage of a substrate peptide containing a fluorescent moiety), some of the compounds were tested on neutrophil collagenase, an enzyme described as participating in any kind of inflammatory reaction in mammalian bodies. In this case, the purified enxzyme was also obtained by recombinant means.

[3] = test system: release of active TNF in human cell culture medium (Jurkat); experiment: Release of active TNF from Jurkat cells (ELISA); format: cell-based; details: 72 hours incubation, stimulated with PMA and ionophore calcium
Method: It is well known that TNF plays a fundamental role in certain physiological defense responses but, on the other hand, causes severe damage when it is released into circulation in excessive amounts or for prolonged periods. […] An attempt was, therefore, made to see whether certain compounds selected from among those of the present application and of WO 92/06108 were capable of blocking the release of active TNF in human cell culture medium (Jurkat). The cells were incubated in the presence or in the absence of metalloproteinase inhibitor for 72 hours; the release of TNF was then stimulated using activators (PMA and ionophore calcium), and the Factor was dosed into the culture medium using the ELISA test (Genzyme).

[4] = test system: blood cells that migrate to the inflamed site (lymphocytes, neutrophils, eosinophils, macrophages); experiment: Hypereosinophilia induced in rats by Sephadex G-200 resin; format: in vivo; details: hypereosinophilia induced by Sephadex G-200 resin, result in words
Method: As the metalloproteinases produced by the cells of mammals are of fundamental importance to allow the cells to migrate from one tissue to another within the organism, Compounds 9, 18, 25 and 31 of the present invention, together with the compounds Z--Pro--Leu--Cyt and FUR--Leu--Cyt (Examples 1 and 8, respectively, of WO 92/06018) were tested on hypereosinophilia induced in rats by Sephadex G-200 resin.

[5] = biological target: T1, recombinant human gelatinase A (Homo sapiens, UniProt P08253); experiment: In vitro effects on recombinant human gelatinase A; format: biochemical
T1 construct: purchased Strangeways Laboratories, Cambridge, UK
T1 sequence (P08253 110-660): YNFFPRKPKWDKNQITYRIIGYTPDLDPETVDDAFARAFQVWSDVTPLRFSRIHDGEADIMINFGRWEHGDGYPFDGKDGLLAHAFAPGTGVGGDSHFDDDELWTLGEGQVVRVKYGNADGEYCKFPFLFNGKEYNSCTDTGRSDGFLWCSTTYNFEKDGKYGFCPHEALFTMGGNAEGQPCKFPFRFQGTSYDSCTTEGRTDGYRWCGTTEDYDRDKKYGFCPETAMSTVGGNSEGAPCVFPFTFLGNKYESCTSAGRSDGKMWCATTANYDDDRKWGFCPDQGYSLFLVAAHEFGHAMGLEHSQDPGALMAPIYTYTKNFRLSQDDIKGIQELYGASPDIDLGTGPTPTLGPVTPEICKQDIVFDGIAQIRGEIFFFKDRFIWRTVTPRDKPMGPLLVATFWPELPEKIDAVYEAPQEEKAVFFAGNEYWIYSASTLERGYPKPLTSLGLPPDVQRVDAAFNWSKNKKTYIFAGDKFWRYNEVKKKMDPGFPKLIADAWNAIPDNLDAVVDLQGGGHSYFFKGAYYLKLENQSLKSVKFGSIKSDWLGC
Excerpt: Assays on human gelatinase A, an enzyme released in high concentration by any kind of tumor cells during the process of metastatization, and recognized also as a product of stimulated cells in many pathological processes, have been performed using the protein obtained by recombinant biotechnology (Strangeways Laboratories, Cambridge, UK). The enzymatic activity has been followed over time, measuring the amount of fluorescent substrate cleaved by the enzyme, in the presence or absence of synthetic compounds (Perkin Elmer L50 B fluorimeter).

[6] = biological target: T2, recombinant human gelatinase B (Homo sapiens, UniProt P14780); experiment: In vitro effects on recombinant human gelatinase B; format: biochemical
T2 construct: purchased Stangeways Laboratories, Cambridge, UK (so in the source)
T2 sequence (P14780 94-707): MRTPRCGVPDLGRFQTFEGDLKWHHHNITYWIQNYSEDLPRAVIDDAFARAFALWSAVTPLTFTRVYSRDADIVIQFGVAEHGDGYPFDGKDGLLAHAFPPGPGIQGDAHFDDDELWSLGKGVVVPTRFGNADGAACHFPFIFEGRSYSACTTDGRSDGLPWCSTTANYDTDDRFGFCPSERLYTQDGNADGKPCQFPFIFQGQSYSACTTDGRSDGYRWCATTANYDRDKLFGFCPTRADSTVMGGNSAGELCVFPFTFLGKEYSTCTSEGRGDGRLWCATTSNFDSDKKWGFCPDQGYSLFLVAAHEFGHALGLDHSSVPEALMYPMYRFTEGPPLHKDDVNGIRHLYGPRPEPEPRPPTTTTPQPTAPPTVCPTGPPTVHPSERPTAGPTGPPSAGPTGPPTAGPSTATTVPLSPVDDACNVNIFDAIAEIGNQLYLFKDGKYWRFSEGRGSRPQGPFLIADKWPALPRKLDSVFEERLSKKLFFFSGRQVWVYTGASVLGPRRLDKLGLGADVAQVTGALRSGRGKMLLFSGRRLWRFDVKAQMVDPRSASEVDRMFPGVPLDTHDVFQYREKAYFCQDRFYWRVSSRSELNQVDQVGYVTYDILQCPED
Method: Assays on human gelatinase B, another enzyme released by tumor cells, were performed using also, in this case, the protein obtained by recombinant biotechnology Stangeways Laboratories, Cambridge, UK). As usual, the enzymatic activity was followed over time, measuring the amount of fluorescent substrate cleaved by the enzyme, in the presence or absence of synthetic compounds (Perkin Elmer L50 B fluorimeter).

[7] = test system: hemorrhages and lethal results induced by snake venom; experiment: Inhibition of hemorrhages and lethality induced by snake venom in mice; format: in vivo
[8] = test system: human melanoma cell line VMM-5; experiment: Matrigel-based invasion assay with human melanoma cells; format: cell-based; details: Concentration 500 micro M, VMM-5 cells, 20 hours
Excerpt: In order to obtain information about the possible interference of the synthesized compounds on the ability of tumor cells to migrate through the body (metastatization), the human melanoma cell line VMM-5 was used in the matrigel-based invasion assay, in which basal membrane matrigel (Becton Dickinson) and tissue culture inserts with 8 microns pore size in 24 well tissue culture plates were used as Boyden chambers. The chambers were coated with diluted matrigel and allowed to dry overnight; they were then reconstituted with serum free medium, and melanoma cells (4,000,000/ml) were dispensed in each insert. In the lower chambers, a chemoattractant was included. The chambers were finally placed in a humidified CO2 incubator at 37° C., and incubated for 20 hours. The inserts were dried and the cells on the upper surface removed. The polycarbonate filters were fixed with methanol, stained with hematoxylin and eosin, and counted with a microscope. Inhibition of migration due to compounds has been expressed as a percentage of the total number of migrated cells in the control chambers containing only the buffer in which the compounds were dissolved.

[9] = Resistance to proteolytic activity in stomach juices (rat stomach homogenate, HPLC); details: 37° C.
Method: To check if the compounds of the present invention are resistant to proteolytic activity in stomach juices and, therefore, could be administered orally, the stomachs of fasting rats were homogenized in physiological solutions (1:1). 300 microliters of solutions of the compounds (1 mg/ml of saline) were incubated with 0.5 ml of stomach homogenates (37° C.).

[10] = biological target: metalloproteinase purified from snake venom, Echis Carinatus; experiment: Inhibition of metalloproteinase purified from Echis Carinatus venom; format: biochemical; details: Table 5; unit M
[11] = biological target: metalloproteinase purified from snake venom, Bothrops Atrox; experiment: Inhibition of metalloproteinase purified from Bothrops Atrox venom; format: biochemical; details: Table 5; unit M
[12] = biological target: metalloproteinase purified from snake venom, Bothrops Jararaca; experiment: Inhibition of metalloproteinase purified from Bothrops Jararaca venom; format: biochemical; details: Table 5; unit M
[13] = test system: TNF release from another strain of human cells in culture (clone T); experiment: TNF release from human cells in culture (clone T); format: cell-based
[14] = test system: microhemorrhages induced by histamine; experiment: Histamine-induced microhemorrhages (capillary permeability) in hamsters; format: in vivo

enzyme purified from the venom of Crotalus Adamanteus (hemorrhagin), sequence (P34179 whole entry, looked up): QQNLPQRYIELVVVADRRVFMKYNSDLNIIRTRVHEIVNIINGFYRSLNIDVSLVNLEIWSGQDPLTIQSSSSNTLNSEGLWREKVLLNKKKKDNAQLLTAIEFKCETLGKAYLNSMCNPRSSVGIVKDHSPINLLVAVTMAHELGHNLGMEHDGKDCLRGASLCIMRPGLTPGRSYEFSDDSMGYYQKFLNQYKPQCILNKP
neutrophil collagenase (recombinant human), sequence (P22894 101-467): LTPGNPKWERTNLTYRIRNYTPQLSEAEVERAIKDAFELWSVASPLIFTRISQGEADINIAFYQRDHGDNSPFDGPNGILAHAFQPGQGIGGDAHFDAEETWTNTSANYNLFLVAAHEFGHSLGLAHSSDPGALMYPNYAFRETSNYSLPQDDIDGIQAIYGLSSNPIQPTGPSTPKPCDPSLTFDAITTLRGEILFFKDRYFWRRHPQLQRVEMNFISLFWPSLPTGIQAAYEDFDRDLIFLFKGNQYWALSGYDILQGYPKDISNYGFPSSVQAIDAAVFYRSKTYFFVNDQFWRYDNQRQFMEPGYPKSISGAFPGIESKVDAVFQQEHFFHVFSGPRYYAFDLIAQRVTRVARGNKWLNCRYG

Compound: 4-MBZ--(L)--Trp--(S)--Cyt--OH [Compound 25]
- IC50 [1]: 54 nM
- % Inhibition ([2]; Concentration 5.2 × 10^-5 M): 23%
- IC50 of inhibition of TNF release by cells [3]: around 0.7 mcg/ml
- Effect on number of blood cells that migrate to the inflamed site [4]: interfered with the number of blood cells that migrate to the inflamed site

Compound: CC(C)C[C@H](NC(=O)c1ccco1)C(=O)N[C@@H](Cc1c[nH]c2ccccc12)C(=O)O [2-FUR--Leu--Trp]
- In vitro inhibition of the metalloproteinase purified from the venom of Crotalus Adamanteus [1]: excellent in vitro inhibitor
- % Inhibition ([5]; Concentration 1.0 × 10^-7 M): 41%
- % Inhibition ([6]; Concentration 1.0 × 10^-5 M): 22%
- % Inhibition ([2]; Concentration 2.4 × 10^-5 M): 12%
- Protection of mice from death by injection of the venom ([7]; dose of 33 mcg/mouse, even when administered after the venom (up to 30 minutes)): capable of protecting the mice from death
- Neutralizing the toxic effects of hemorrhagic factors of various snake venom ([7]; mice, compound incubated with the hemorrhagic factors): capable of neutralizing the toxic effects thereof

Compound: CC(C)C[C@H](NC(=O)c1ccccn1)C(=O)N1Cc2[nH]c3ccccc3c2C[C@H]1C(=O)O [Compound 9, PIC--(L)--Leu--(S)--Cyt--OH]
- IC50 [1]: 27 nM
- % Inhibition ([6]; Concentration 1.1 × 10^-5 M): 20%
- IC50 of inhibition of TNF release by cells [3]: around 8 mcg/ml
- Effect on number of blood cells that migrate to the inflamed site [4]: interfered with the number of blood cells that migrate to the inflamed site
- % Inhibition of Invasion [8]: 94%

Compound: O=C(N[C@@H](CC1CCCCC1)C(=O)N1Cc2[nH]c3ccccc3c2C[C@H]1C(=O)O)c1ccco1 [Compound 10, 2-FUR--(L)--Cha--(S)--Cyt--OH]
- IC50 [1]: 25 nM
- % Inhibition ([6]; Concentration 1.1 × 10^-5 M): 32%
- % Inhibition ([2]; Concentration 2.1 × 10^-5 M): 51%
- IC50 of inhibition of TNF release by cells [3]: around 200 mcg/ml
- % Inhibition of Invasion [8]: 99%
- Residue after 60 Minutes ([9]; 60 minutes): 100%
- Residue after 120 Minutes ([9]; 120 minutes): > 95%

Compound: CC(C)C[C@H](NC(=O)c1cc2ccccc2o1)C(=O)N1Cc2[nH]c3ccccc3c2C[C@H]1C(=O)O [Compound 15, 2-BZF--(L)--Leu--(S)--Cyt--OH]
- IC50 [1]: 40 nM
- IC50 [10]: 2 µM
- IC50 [11]: 8.2 µM
- IC50 [12]: 14 µM

Compound: CC(C)C[C@H](NC(=O)c1cnccn1)C(=O)N1Cc2[nH]c3ccccc3c2C[C@H]1C(=O)O [Compound 18, 2-PZC--(L)--Leu--(S)--Cyt--OH]
- IC50 [1]: 210 nM
- IC50 [10]: 7 µM
- IC50 [11]: 5.2 µM
- IC50 [12]: 8.4 µM
- Effect on number of blood cells that migrate to the inflamed site [4]: interfered with the number of blood cells that migrate to the inflamed site

Compound: Cc1ccc(C(=O)N[C@@H](CC(C)C)C(=O)N2Cc3[nH]c4ccccc4c3C[C@H]2C(=O)O)cn1 [Compound 22, 6-MNC--(L)--Leu--(S)--Cyt--OH]
- IC50 [1]: 110 nM
- IC50 [10]: 14 µM
- IC50 [11]: 3.2 µM
- IC50 [12]: 21 µM
- % Inhibition ([5]; Concentration 8.0 × 10^-7 M): 47%

Compound: FUR--Leu--Cyt
- Effect on number of blood cells that migrate to the inflamed site [4]: interfered with the number of blood cells that migrate to the inflamed site
- % Inhibition of Invasion [8]: 69%

Compound: Z--Pro--Leu--Cyt
- % Inhibition ([5]; Concentration 1.8 × 10^-7 M): 64%
- % Inhibition ([6]; Concentration 9.0 × 10^-6 M): 32%
- % Inhibition ([2]; Concentration 1.8 × 10^-5 M): 23%
- IC50 of inhibition of TNF release by cells [3]: around 5 mcg/ml
- IC50 of inhibition of TNF release [13]: lower than 1 mcg/ml
- Dose capable of blocking 50% of effects ([14]; administered orally): around 50 mcg/Kg
- Dose capable of blocking 50% of effects ([14]; injected intravenously): around 50 mcg/Kg
- Blocking microhemorrhages induced by histamine ([14]; result in words): extremely powerful in blocking microhemorrhages induced by histamine
- Effect on number of blood cells that migrate to the inflamed site [4]: interfered with the number of blood cells that migrate to the inflamed site
- % Inhibition of Invasion [8]: 70%
